Patent US6153740A, “cDNA encoding nucleoside transporter” (University of Alberta, priority 1997, dated 2000)
“Also recorded” adds a separate entry of the source. Like-named read-outs stand apart in the source and are kept apart here.

Assays:
CNT1 [1] = biological target: T1, CNT1 (Rattus norvegicus, UniProt Q62674); experiment: inhibition of CNT1-mediated nucleoside (uridine, AZT, ddC) transport in Xenopus oocytes; assay type: cell-based; conditions: for effect on expressed uridine fluxes/transport: inhibitor 1 mM; for selective inhibition of uridine and thymidine fluxes (rCNT1): adenosine, cytidine, uridine>>guanosine, inosine
T1 sequence (Q62674 1-648): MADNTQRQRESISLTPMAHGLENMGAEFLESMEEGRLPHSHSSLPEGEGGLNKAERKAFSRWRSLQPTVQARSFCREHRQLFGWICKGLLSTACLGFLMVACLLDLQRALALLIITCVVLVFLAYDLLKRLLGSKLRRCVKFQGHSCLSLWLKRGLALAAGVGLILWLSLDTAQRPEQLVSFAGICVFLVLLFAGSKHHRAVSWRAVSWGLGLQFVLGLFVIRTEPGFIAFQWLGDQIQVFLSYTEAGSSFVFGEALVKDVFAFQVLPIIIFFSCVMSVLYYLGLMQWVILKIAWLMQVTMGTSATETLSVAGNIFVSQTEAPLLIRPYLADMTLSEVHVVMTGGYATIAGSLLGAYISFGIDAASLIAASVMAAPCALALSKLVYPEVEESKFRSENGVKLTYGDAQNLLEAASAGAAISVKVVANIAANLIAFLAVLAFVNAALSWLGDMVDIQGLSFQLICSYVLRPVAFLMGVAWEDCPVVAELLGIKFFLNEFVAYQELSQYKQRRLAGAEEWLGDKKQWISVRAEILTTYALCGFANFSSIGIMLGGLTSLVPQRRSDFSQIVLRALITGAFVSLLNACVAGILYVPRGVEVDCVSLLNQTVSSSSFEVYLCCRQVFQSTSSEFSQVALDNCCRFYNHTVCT
Protocol: (§1) Oocytes were injected with water or RNA transcribed in vitro from the nucleoside transporter cDNA (pQQH1). […] For panels c and d, the permeant concentration was 10 μM and competing nonradioactive nucleosides were present at a concentration of 1 mM.
(§2) Remaining template was removed by digestion with RQ1 DNase. Oocytes were treated with collagenase to remove follicular layers (Huang et al, 1993) and injected with 10 ng of pQQH1 cRNA or water. […] At the end of the incubation, extracellular label was removed by six rapid ice-cold washes in the appropriate transport buffer. Individual oocytes were dissolved in 5% SDS for quantitation of oocyte-associated ^3 H by liquid scintillation counting (LS 6000 IC, Beckman).

hCNT1b [2] = biological target: T2, hCNT1b (Homo sapiens, UniProt O00337); experiment: inhibition of hCNT1b-mediated influx of [3H]uridine in Xenopus oocytes; assay type: cell-based; conditions: uridine 10 μM; for inhibition of uridine fluxes, hCNT1b: competitor 1 mM (FIG. 12B)
T2 sequence (O00337 2-649 V189I/N409S/D521N): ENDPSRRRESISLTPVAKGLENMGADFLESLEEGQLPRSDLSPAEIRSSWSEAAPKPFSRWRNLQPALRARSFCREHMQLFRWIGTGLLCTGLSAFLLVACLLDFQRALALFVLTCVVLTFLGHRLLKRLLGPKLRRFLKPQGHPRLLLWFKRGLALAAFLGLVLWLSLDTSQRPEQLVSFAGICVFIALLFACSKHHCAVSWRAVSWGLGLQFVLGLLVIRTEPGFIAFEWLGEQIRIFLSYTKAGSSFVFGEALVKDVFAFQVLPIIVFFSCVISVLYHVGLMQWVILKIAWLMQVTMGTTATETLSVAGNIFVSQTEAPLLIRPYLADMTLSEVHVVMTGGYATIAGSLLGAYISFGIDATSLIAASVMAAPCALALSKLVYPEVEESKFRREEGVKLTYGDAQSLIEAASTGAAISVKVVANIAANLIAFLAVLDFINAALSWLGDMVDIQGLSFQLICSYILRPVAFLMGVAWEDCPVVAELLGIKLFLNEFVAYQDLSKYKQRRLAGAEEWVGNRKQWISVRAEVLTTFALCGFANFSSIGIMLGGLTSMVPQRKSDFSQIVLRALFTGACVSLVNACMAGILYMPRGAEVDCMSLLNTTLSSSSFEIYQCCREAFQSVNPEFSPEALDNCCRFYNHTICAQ
Description: H2 O, water-injected oocytes.

hCNT1a [3] = biological target: T3, hCNT1a (Homo sapiens, UniProt O00337); experiment: inhibition of hCNT1a-mediated influx of [3H]uridine in Xenopus oocytes; conditions: uridine 10 μM; for inhibition of uridine fluxes, hCNT1a: competitor 1 mM (FIG. 12A), guanosine also in FIG. 13
T3 sequence (O00337 with tags, fused parts or gaps E34G/INS140V): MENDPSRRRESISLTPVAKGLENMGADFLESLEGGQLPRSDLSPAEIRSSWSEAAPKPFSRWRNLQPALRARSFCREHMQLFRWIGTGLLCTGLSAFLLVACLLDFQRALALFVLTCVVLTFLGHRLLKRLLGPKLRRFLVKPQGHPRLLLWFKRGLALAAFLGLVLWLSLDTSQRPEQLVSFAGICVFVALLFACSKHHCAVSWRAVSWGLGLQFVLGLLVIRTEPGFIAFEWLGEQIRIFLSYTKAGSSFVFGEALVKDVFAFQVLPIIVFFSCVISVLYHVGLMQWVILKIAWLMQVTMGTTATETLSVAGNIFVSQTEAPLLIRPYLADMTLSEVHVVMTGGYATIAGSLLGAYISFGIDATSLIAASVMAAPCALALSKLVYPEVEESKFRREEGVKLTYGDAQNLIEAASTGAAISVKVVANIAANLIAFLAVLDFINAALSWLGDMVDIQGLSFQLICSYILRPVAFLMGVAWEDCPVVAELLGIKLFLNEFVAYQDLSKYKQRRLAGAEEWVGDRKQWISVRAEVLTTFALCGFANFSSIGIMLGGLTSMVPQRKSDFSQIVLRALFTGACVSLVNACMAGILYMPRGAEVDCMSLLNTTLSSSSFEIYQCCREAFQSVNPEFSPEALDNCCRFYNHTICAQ
Protocol: H2 O, water-injected oocytes. Fluxes were not corrected for the contribution of endogenous transport activity.
(§3) Defolliculated oocytes (Huang et al. 1993) were injected with either 10 nl of water containing 10 ng RNA transcript or 10 nl of water alone. Nucleoside uptake was measured after 3 d and was traced with the respective [^3 H] or [^14 C]nucleoside (Moravek Biochemicals)(5 μC 3H/ml, 1 μC 14C/ml). […] The transport buffer for adenosine influx experiments contained 1 μM deoxycoformycin to inhibit adenosine deaminase activity. Results are presented as means ±SEM for 10-12 individual oocytes. Kinetic constants were determined by non-linear regression analysis (ENZFITTER, Elsevier-Biosoft). Each experiment was performed at least twice on different batches of oocytes.

CNT1 [4] = biological target: T1, CNT1; experiment: uptake/influx of radiolabelled nucleosides in Xenopus oocytes injected with pQQH1 (rat CNT1) cRNA; assay type: cell-based; conditions: for Vmax: rat CNT1, permeant = labelled substance
Protocol: as §1
Oocytes injected with water or in vitro transcribed RNA from pQQH1 were incubated with radiolabeled permanent (10 μM) for 30 min (open columns) or 1 h (hatched columns) at 20° C. Each value represents the mean ±S. E. of 8-10 ooctyes.
as §2

[5] = system: human erythrocyte es transporter; conditions: cited from earlier work
human erythrocytes = conditions: cited from earlier work
hCNT1b [6] = biological target: T2, hCNT1b; experiment: influx of radiolabelled nucleosides in Xenopus oocytes injected with hCNT1b RNA transcript; assay type: cell-based
Protocol: as §3

hCNT1a [7] = biological target: T3, hCNT1a; experiment: influx of radiolabelled nucleosides in Xenopus oocytes injected with hCNT1a RNA transcript
Protocol: Oocytes were injected with either water alone or water containing hCNT1a RNA transcript.
Oocytes were injected with either water alone (.tangle-solidup.) or water containing hCNT1a RNA transcript (.smallcircle.,.circle-solid.).
Adenosine, guanosine and AZT (10 μM) fluxes were compared in the same batch of oocytes injected either with water (open columns) or with RNA transcript for hCNT1a or rCNT1 (hatched and solid columns, respectively).
as §3

rat jejunum = experiment: uptake of [3H]AZT by rat jejunum in vivo
[8] = substrate: O=c1ccn([C@@H]2O[C@H](CO)[C@@H](O)[C@H]2O)c(=O)[nH]1; experiment: cells, lysate or membranes; conditions: other: hCNT1a; 20.0 °C
[9] = 10 μM, same experiment as adenosine (FIG. 14A)

O=c1ccn([C@@H]2O[C@H](COP(=O)(O)OP(=O)(O)O)[C@@H](O)[C@H]2O)c(=O)[nH]1 [UDP]
effect on expressed uridine fluxes/transport (CNT1 [1]): no effect

O=c1ccn([C@@H]2O[C@H](COP(=O)(O)O)[C@@H](O)[C@H]2O)c(=O)[nH]1 [UMP]
effect on expressed uridine fluxes/transport (CNT1 [1]): no effect

O=c1ccn([C@@H]2O[C@H](COP(=O)(O)OP(=O)(O)OP(=O)(O)O)[C@@H](O)[C@H]2O)c(=O)[nH]1 [UTP]
effect on expressed uridine fluxes/transport (CNT1 [1]): no effect

O=c1cc[nH]c(=O)[nH]1 [Uracil]
effect on expressed uridine fluxes/transport (CNT1 [1]): no effect

Nc1ccn([C@@H]2O[C@H](CO)[C@@H](O)[C@H]2O)c(=O)n1 [cytidine]
selective inhibition of uridine and thymidine fluxes (rCNT1) (CNT1 [1]): selective inhibition | inhibition of uridine fluxes, hCNT1b (hCNT1b [2]): inhibited | inhibition of uridine fluxes, hCNT1a (hCNT1a [3]): inhibited

Nc1ccn([C@H]2CC[C@@H](CO)O2)c(=O)n1 [ddC, 2',3'-dideoxycytidine]
CNT1-mediated uptake/transport (CNT1 [4]; 10 μM permeant): large increases | Na+ dependence of initial rate of expressed uptake (CNT1 [4]; 10 μM, 10-min flux): 93% | Vmax (CNT1 [4]): 20 pmol/oocyte.min^-1 | IC50 (CNT1 [1]): < 1 mM | inhibition of hCNT1b-mediated influx of uridine (hCNT1b [2]; analog 5 mM (FIG. 12B)): inhibited | Km ([5]; Domin et al, 1993): 23 mM | transport by equilibrative nucleoside transporters [5]: low affinity es substrate | rate of entry into human erythrocytes relative to those of thymidine and cytidine (human erythrocytes): < 2% | inhibition of hCNT1a-mediated influx of uridine (hCNT1a [3]; analog 5 mM (FIG. 12A)): inhibited

Nc1nc2c(ncn2[C@H]2CC[C@@H](CO)O2)c(=O)[nH]1 [ddG, 2',3'-dideoxyguanosine]
effect on expressed uridine fluxes/transport (CNT1 [1]): no effect

OC[C@@H]1CC[C@H](n2cnc3c(O)ncnc32)O1 [ddl, 2',3'-dideoxyinosine]
effect on expressed uridine fluxes/transport (CNT1 [1]): no effect

Nc1nc2c(ncn2[C@@H]2O[C@H](CO)[C@@H](O)[C@H]2O)c(=O)[nH]1 [guanosine]
mediated flux, rCNT1 (CNT1 [4]; 10 μM permeant (FIG. 14)): 0.05±0.01 pmol/oocyte.10 min^-1 | selective inhibition of uridine and thymidine fluxes (rCNT1) (CNT1 [1]): >>guanosine, inosine | fluxes, hCNT1b (results not shown) (hCNT1b [6]): very low guanosine fluxes | inhibition of uridine fluxes, hCNT1b (hCNT1b [2]): not | inhibition of uridine fluxes, hCNT1a (hCNT1a [3]): not and not inhibited | permeant quality, hCNT1 (hCNT1a [7]): poor CNT1 permeant; also recorded: poor hCNT1 permeants | mediated flux, hCNT1a (hCNT1a [7]; 10 μM permeant (FIG. 14)): 0.06±0.01 pmol/oocyte.10 min^-1

OC[C@H]1O[C@@H](n2cnc3c(O)ncnc32)[C@H](O)[C@@H]1O [inosine]
selective inhibition of uridine and thymidine fluxes (rCNT1) (CNT1 [1]): >>guanosine, inosine | inhibition of uridine fluxes, hCNT1b (hCNT1b [2]): not | inhibition of uridine fluxes, hCNT1a (hCNT1a [3]): not

Cc1cn([C@H]2C[C@H](O)[C@@H](CO)O2)c(=O)[nH]c1=O [thymidine]
selective inhibition of uridine and thymidine fluxes (rCNT1) (CNT1 [1]): selective inhibition | inhibition of uridine fluxes, hCNT1b (hCNT1b [2]): inhibited | inhibition of uridine fluxes, hCNT1a (hCNT1a [3]): inhibited

O=c1ccn([C@@H]2O[C@H](CO)[C@@H](O)[C@H]2O)c(=O)[nH]1 [uridine]
intracellular concentration higher than that in the extracellular medium (CNT1 [4]; 10 μM uridine, 30 min): approximately 6 -fold | cellular content of uridine after 30 min (CNT1 [4]; 10 μM, 20° C., 30 min, pQQH1 cRNA-injected): 64 pmol/oocyte | uridine flux, rCNT1 (CNT1 [4]; [9]): 5.60±0.38 pmol/oocyte.min^-1 | effect of substitution of Cl- by gluconate on flux (CNT1 [4]; 100 mM NaCl or sodium gluconate, 10 mM HEPES, pH 7.6): unaffected | Vmax (uridine transport) (CNT1 [4]; rat CNT1): 21 pmol/oocyte-min^-1 | Vmax (CNT1 [4]): 21 pmol/oocyte.min^-1 | inhibition at 1000 µM (CNT1 [1]; read-out: inhibition of expressed AZT uptake): > 95% | inhibition at 1000 µM (CNT1 [1]; read-out: inhibition of expressed ddC uptake): > 95% | Vmax, influx of uridine (hCNT1b [6]; hCNT1b): 22±2 pmol/oocyte.min^-1 | Km (hCNT1b [6]; read-out: apparent Km, influx of uridine, hCNT1b): 37 ± 10 µM | inhibition of uridine fluxes, hCNT1b (hCNT1b [2]): inhibited | inhibition of [3H]AZT uptake by rat jejunum in vivo (rat jejunum): inhibited by uridine | inhibition of uridine fluxes, hCNT1a (hCNT1a [3]): inhibited | uridine influx in Na+-medium (hCNT1a [7]; 10 μM, 100 mM NaCl (FIG. 9)): 4.88±0.70 pmol/oocyte.min^-1 | uridine influx in choline-medium (hCNT1a [7]; 10 μM, 100 mM choline chloride (FIG. 9)): 0.18±0.01 pmol/oocyte.min^-1 | uridine flux, hCNT1a (hCNT1a [7]; [9]): 3.68±0.46 pmol/oocyte.min^-1 | Na+-independent uridine influx (hCNT1a [7]; 50 μM uridine (FIG. 11)): 0.81±0.14 pmol/oocyte.min^-1 | Vmax, influx of uridine (hCNT1a [7]; hCNT1a): 26±1 pmol/oocyte.min^-1

B1: hCNT1a (Homo sapiens) (protein)
chain: MENDPSRRRESISLTPVAKGLENMGADFLESLEGGQLPRSDLSPAEIRSSWSEAAPKPFSRWRNLQPALRARSFCREHMQLFRWIGTGLLCTGLSAFLLVACLLDFQRALALFVLTCVVLTFLGHRLLKRLLGPKLRRFLVKPQGHPRLLLWFKRGLALAAFLGLVLWLSLDTSQRPEQLVSFAGICVFVALLFACSKHHCAVSWRAVSWGLGLQFVLGLLVIRTEPGFIAFEWLGEQIRIFLSYTKAGSSFVFGEALVKDVFAFQVLPIIVFFSCVISVLYHVGLMQWVILKIAWLMQVTMGTTATETLSVAGNIFVSQTEAPLLIRPYLADMTLSEVHVVMTGGYATIAGSLLGAYISFGIDATSLIAASVMAAPCALALSKLVYPEVEESKFRREEGVKLTYGDAQNLIEAASTGAAISVKVVANIAANLIAFLAVLDFINAALSWLGDMVDIQGLSFQLICSYILRPVAFLMGVAWEDCPVVAELLGIKLFLNEFVAYQDLSKYKQRRLAGAEEWVGDRKQWISVRAEVLTTFALCGFANFSSIGIMLGGLTSMVPQRKSDFSQIVLRALFTGACVSLVNACMAGILYMPRGAEVDCMSLLNTTLSSSSFEIYQCCREAFQSVNPEFSPEALDNCCRFYNHTICAQ
Km [8]: 45 ± 8 µM
